*1 amine or outer side, *2 acyl side, *3 side chain or, on linkers, in order; H or OH if unused. Where a SMILES comes first, the peptide text is derived from it. Bridges are numbered along the chain shown (N, C = ends). [ ]: non-standard residue; d: D form. The star is where a group is joined. hPhe(3-Cl-4-CF3) = N[C@@H](CCc1ccc(C(F)(F)F)c(Cl)c1)C(=O)O; X22 = C=CCCN([C@@H](Cc1ccc(C(F)(F)F)cc1)C(=O)[*:2])[*:1]; NPrPhe(4-CF3) = CCCN[C@@H](Cc1ccc(C(F)(F)F)cc1)C(=O)O; NMeGly(cPent) = CN[C@H](C(=O)O)C1CCCC1; Pro(4,4-F2) = O=C(O)[C@@H]1CC(F)(F)CN1; NMeD = CN[C@@H](CC(=O)O)C(=O)O; NMeL = CN[C@@H](CC(C)C)C(=O)O; NMeNva = CCC[C@H](NC)C(=O)O; NMeAbu = CC[C@H](NC)C(=O)O; Morpholide = C1CN(*)CCO1; NMeA = CN[C@@H](C)C(=O)O; Ac5c = NC1(C(=O)O)CCCC1; Aze = O=C(O)[C@@H]1CCN1; NEtG = CCNCC(=O)O; Sar = CNCC(=O)O
Columns and labels:
HRAS wild-type protein = HRAS wild-type protein (Homo sapiens, UniProt P01112); test: Binding to HRAS by surface plasmon resonance (SPR), KD and KD ratio to KRAS
Sequence of HRAS wild-type protein (P01112 whole entry): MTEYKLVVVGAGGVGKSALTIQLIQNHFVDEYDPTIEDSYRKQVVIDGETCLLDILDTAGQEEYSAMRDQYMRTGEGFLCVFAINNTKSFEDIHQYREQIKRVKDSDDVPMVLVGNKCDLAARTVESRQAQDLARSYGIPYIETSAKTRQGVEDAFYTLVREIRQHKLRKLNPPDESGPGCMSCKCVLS
How it was run: (§1)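 Biotinylated GDP-bound RAS was captured at about 100–300 RU. Running buffer: HBS pH 7.4, 10 mM MgCl2, 10 µM GDP, 1 mM DTT, 0.01% Tween 20, 4% DMSO.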

[1] = target: GDP-bound NRAS wild-type protein (Homo sapiens, UniProt P01111); test: Binding to NRAS by surface plasmon resonance (SPR), KD and KD ratio to KRAS
Sequence of GDP-bound NRAS wild-type protein (P01111 whole entry): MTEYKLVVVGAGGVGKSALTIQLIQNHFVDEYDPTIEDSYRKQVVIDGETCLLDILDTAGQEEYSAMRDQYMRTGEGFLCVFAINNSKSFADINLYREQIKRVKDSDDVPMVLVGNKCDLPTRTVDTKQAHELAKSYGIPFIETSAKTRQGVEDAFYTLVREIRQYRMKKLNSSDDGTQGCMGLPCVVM
How it was run: as §1

[2] = test system: human lung cancer strain NCI-H441; type: cell-based
How it was run: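 Step one: dispense the test compound in serial DMSO dilutions. Step three: add the reagent and measure […].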

[3] = ratio of KD for HRAS wild-type protein to KD for KRAS
[4] = ratio of KD for GDP-bound NRAS wild-type protein to KD for KRAS
[5] = ratio of KD value for HRAS wild-type protein to KD value for KRAS (SPR)
[6] = ratio of KD value for GDP-bound NRAS wild-type protein to KD value for KRAS (SPR)
[7] = ratio of the KD value with respect to HRAS wild-type protein to the KD value with respect to KRAS
[8] = ratio of the KD value with respect to GDP-bound NRAS wild-type protein to the KD value with respect to KRAS

SMILES | IC50 [2] [µM] | HRAS /KRAS (HRAS wild-type protein; [3]) | NRAS /KRAS [1, 4] | HRAS /KRAS (HRAS wild-type protein; [5]) | NRAS /KRAS [1, 6] | HRAS /KRAS (HRAS wild-type protein; [7]) | NRAS /KRAS [1, 8]
CCC[C@H]1C(=O)N[C@@H]([C@@H](C)CC)C(=O)N(C)[C@@H](C)C(=O)N2CC[C@H]2C(=O)N(CCC)[C@@H](Cc2ccc(C(F)(F)F)cc2)C(=O)N(C)CC(=O)N[C@@H](CCc2ccc(C(F)(F)F)c(Cl)c2)C(=O)N2CC(F)(F)C[C@H]2C(=O)NC2(CCCC2)C(=O)N(C)[C@@H](C2CCCC2)C(=O)N(C)[C@H](C(=O)N2CCOCC2)CC(=O)N1C [PP0205] ([NMeNva]I[NMeA][Aze][NPrPhe(4-CF3)][Sar][hPhe(3-Cl-4-CF3)][Pro(4,4-F2)][Ac5c][NMeGly(cPent)][NMeD]-Morpholide; lactam N-11) | 0.0046 | C (A compound having a KD ratio of 0.1 or more and less than 3 is denoted as C) | C (A compound having a KD ratio of 0.1 or more and less than 3 is denoted as C) | – | – | – | –
CCO[C@@H]1C[C@H]2C(=O)NC3(CCCC3)C(=O)N(C)[C@@H](C3CCCC3)C(=O)N(C)[C@H](C(=O)N3CCOCC3)CC(=O)N(C)[C@@H](CC(C)C)C(=O)N[C@@H]([C@@H](C)CC)C(=O)N(C)CC(=O)N(C)[C@H]3CC(C)=CCN(C3=O)[C@@H](Cc3ccc(C(F)(F)F)cc3)C(=O)N(C)CC(=O)N[C@@H](CCc3cc(F)c(C(F)(F)F)c(F)c3)C(=O)N2C1 [PP1038] | 0.188 | C (A compound having a KD ratio of 0.1 or more and less than 3 is denoted as C) | C (A compound having a KD ratio of 0.1 or more and less than 3 is denoted as C) | – | – | – | –
CC[C@H](C)[C@@H]1NC(=O)[C@H](CC2CC2)N(C)C(=O)C[C@@H](C(=O)N2CCCC2)N(C)C(=O)[C@H](C2CCCC2)N(C)C(=O)C2(CCCC2)NC(=O)[C@@H]2C[C@@H](F)CN2C(=O)[C@H](CCc2cc(F)c(C(F)(F)F)c(F)c2)NC(=O)CN(C)C(=O)[C@H](Cc2ccc(C(F)(F)F)cc2)N2CC/C=C\C[C@@H](C2=O)N(C)C(=O)CN(C)C1=O [PP1503] | 0.0038 | – | – | A (a compound having 10 or more and less than 20 is denoted as A) | A (a compound having 10 or more and less than 20 is denoted as A) | – | –
CCCN1C(=O)CN(C)C(=O)CN(C)C(=O)[C@H]([C@@H](C)CC)NC(=O)[C@H](CC)N(C)C(=O)C[C@@H](C(=O)N2CCOCC2)N(C)C(=O)[C@H](C2CCCC2)N(C)C(=O)C2(CCCC2)NC(=O)[C@@H]2CCCN2C(=O)[C@H](CCc2ccc(C(F)(F)F)c(Cl)c2)NC(=O)CN(C)C(=O)[C@@H]1Cc1ccc(C(F)(F)F)cc1 [PP0190] ([NMeAbu]I[Sar][Sar][NPrPhe(4-CF3)][Sar][hPhe(3-Cl-4-CF3)]P[Ac5c][NMeGly(cPent)][NMeD]-Morpholide; lactam N-11) | 0.0041 | B (a compound having 3 or more and less than 10 is denoted as B) | B (a compound having 3 or more and less than 10 is denoted as B) | – | – | – | –
CCCN1C(=O)CN(C)C(=O)CN(CC)C(=O)[C@H]([C@@H](C)CC)NC(=O)[C@H](CC(C)C)N(C)C(=O)C[C@@H](C(=O)N2CCOCC2)NC(=O)[C@H](C2CCCC2)N(C)C(=O)C2(CCCC2)NC(=O)[C@@H]2CCCN2C(=O)[C@H](CCc2ccc(C(F)(F)F)c(Cl)c2)NC(=O)CN(C)C(=O)[C@@H]1Cc1ccc(C(F)(F)F)cc1 [PP0331] ([NMeL]I[NEtG][Sar][NPrPhe(4-CF3)][Sar][hPhe(3-Cl-4-CF3)]P[Ac5c][NMeGly(cPent)]D-Morpholide; lactam N-11) | 0.0847 | B (a compound having 3 or more and less than 10 is denoted as B) | B (a compound having 3 or more and less than 10 is denoted as B) | – | – | – | –
CCO[C@@H]1C[C@H]2C(=O)NC3(CCC3)C(=O)N(C)[C@@H](C3CCCC3)C(=O)N(C)[C@H](C(=O)N(C)C)CC(=O)N(C)[C@@H](CC)C(=O)N[C@@H]([C@@H](C)CC)C(=O)N(C)[C@@H](C)C(=O)N(C)[C@H]3C/C=C\CCN(C3=O)[C@@H](Cc3ccc(C(F)(F)F)cc3)C(=O)N(C)CC(=O)N[C@@H](CCc3cc(F)c(C(F)(F)F)c(F)c3)C(=O)N2C1 [PP1054] | 0.469 | B (a compound having 3 or more and less than 10 is denoted as B) | A (a compound having 10 or more and less than 20 is denoted as A) | – | – | – | –
CCO[C@@H]1C[C@H]2C(=O)NC3(CCC3)C(=O)N(C)[C@@H](C3CCCC3)C(=O)N(CC)[C@H](C(=O)N3CCOCC3)CC(=O)N(C)[C@@H](CCc3ccccc3)C(=O)N[C@@H]([C@@H](C)CC)C(=O)N(C)CC(=O)N(C)[C@H]3CCCCCN(C3=O)[C@@H](Cc3ccc(C(F)(F)F)cc3)C(=O)N(C)CC(=O)N[C@@H](CCc3cc(F)c(C(F)(F)F)c(F)c3)C(=O)N2C1 [PP0953] | 1.61 | A (a compound having 10 or more and less than 20 is denoted as A) | A (a compound having 10 or more and less than 20 is denoted as A) | – | – | – | –
C=CCCN1C(=O)CN(C)C(=O)CN(C)C(=O)[C@H]([C@@H](C)CC)NC(=O)[C@H](CC(C)C)N(C)C(=O)C[C@@H](C(=O)N2CCOCC2)N(C)C(=O)[C@H](C2CCCC2)N(C)C(=O)C2(CCCC2)NC(=O)[C@@H]2CCCN2C(=O)[C@H](CCc2ccc(C(F)(F)F)c(Cl)c2)NC(=O)CN(C)C(=O)[C@@H]1Cc1ccc(C(F)(F)F)cc1 [PP0129] ([NMeL]I[Sar][Sar][X22][Sar][hPhe(3-Cl-4-CF3)]P[Ac5c][NMeGly(cPent)][NMeD]-Morpholide; lactam N-11) | 0.0088 | C (A compound having a KD ratio of 0.1 or more and less than 3 is denoted as C) | B (a compound having 3 or more and less than 10 is denoted as B) | – | – | – | –
CC[C@H](C)[C@@H]1NC(=O)[C@H](CC(C)C)N(C)C(=O)C[C@@H](C(=O)N2CCOCC2)N(C)C(=O)[C@H](C2CCCC2)N(C)C(=O)C2(CCCC2)NC(=O)[C@@H]2CCCN2C(=O)[C@H](CCc2cc(F)c(C(F)(F)F)c(F)c2)NC(=O)CN(C)C(=O)[C@H](Cc2ccc(C(F)(F)F)cc2)N2CCCC[C@@H](C2=O)N(C)C(=O)[C@@H]2CCCCN2C1=O [PP0548] | 0.501 | – | – | – | – | B (a compound having 3 or more and less than 10 is denoted as B) | C (A compound having a KD ratio of 0.1 or more and less than 3 is denoted as C)

Now from value to molecule, other results behind:

IC50 [2] [µM] | SMILES | HRAS /KRAS (HRAS wild-type protein; [3]) | NRAS /KRAS [1, 4] | HRAS /KRAS (HRAS wild-type protein; [5]) | NRAS /KRAS [1, 6] | HRAS /KRAS (HRAS wild-type protein; [7]) | NRAS /KRAS [1, 8]
0.0111 | CCCOC[C@H]1C(=O)N[C@@H]([C@@H](C)CC)C(=O)N(C)CC(=O)N(C)[C@H]2C/C=C\CCN(C2=O)[C@@H](Cc2ccc(C(F)(F)F)cc2)C(=O)N(C)CC(=O)N[C@@H](CCc2cc(F)c(Cl)c(F)c2)C(=O)N2C[C@H](OCC)C[C@H]2C(=O)NC2(CC(C)(C)C2)C(=O)N(C)[C@@H](C2CCCC2)C(=O)N(C)[C@H](C(=O)N(C)C)CC(=O)N1C [PP1764] | – | – | A (a compound having 10 or more and less than 20 is denoted as A) | AA (a compound having 20 or more is denoted as AA) | – | –
0.0251 | CCC[C@H]1C(=O)N[C@@H](C2CCCC2)C(=O)N(C)CC(=O)N(C)[C@H]2C/C=C\CCN(C2=O)[C@@H](Cc2ccc(C(F)(F)F)cc2)C(=O)N(C)CC(=O)N[C@@H](CCc2ccc(C(F)(F)F)c(Cl)c2)C(=O)N2CC3(CC3)C[C@H]2C(=O)NC2(CC(C)(C)C2)C(=O)N(C)[C@@H](C2CCCC2)C(=O)N(C)[C@H](C(=O)N(C)C)CC(=O)N1C [PP2986] | A (a compound having 10 or more and less than 20 is denoted as A) | AA (a compound having 20 or more is denoted as AA) | – | – | – | –
0.0036 | CCCN(C)C(=O)[C@@H]1CC(=O)N(C)[C@@H](CC(F)F)C(=O)N[C@@H]([C@@H](C)CC)C(=O)N(C)CC(=O)N(C)[C@H]2C/C=C\CCN(C2=O)[C@@H](Cc2ccc(C(F)(F)F)cc2)C(=O)N(C)CC(=O)N[C@@H](CCc2cc(F)c(C(F)(F)F)c(F)c2)C(=O)N2C[C@H](OCC)C[C@H]2C(=O)NC2(CCC2)C(=O)N(C)[C@@H](C2CCCC2)C(=O)N1C [PP1700] | – | – | A (a compound having 10 or more and less than 20 is denoted as A) | A (a compound having 10 or more and less than 20 is denoted as A) | – | –
0.0117 | CC[C@H](C)[C@@H]1NC(=O)[C@H](CC(F)F)N(C)C(=O)C[C@@H](C(=O)N(C)CC)N(C)C(=O)[C@H](C2CCCC2)N(C)C(=O)C2(CC(C)(C)C2)NC(=O)[C@@H]2C[C@H](C)CN2C(=O)[C@H](CCc2ccc(C(F)(F)F)c(Cl)c2)NC(=O)CN(C)C(=O)[C@H](Cc2ccc(C)cc2)N2CC/C=C\C[C@@H](C2=O)N(C)C(=O)CN(C)C1=O [PP1911] | – | – | – | – | A (a compound having 10 or more and less than 20 is denoted as A) | A (a compound having 10 or more and less than 20 is denoted as A)
0.0025 | CCO[C@@H]1C[C@H]2C(=O)NC3(CC(C)(C)C3)C(=O)N(C)[C@@H](C3CCCC3)C(=O)N(C)[C@H](C(=O)N(C)C)CC(=O)N(C)[C@H]3CCCC/C=C/c4ccc(cc4)C[C@@H](C(=O)N(C)CC(=O)N[C@@H](CCc4ccc(C(F)(F)F)c(OC)c4)C(=O)N2C1)N1CC/C=C\C[C@@H](C1=O)N(C)C(=O)CN(C)C(=O)[C@H]([C@@H](C)CC)NC3=O [PP1832] | – | – | B (a compound having 3 or more and less than 10 is denoted as B) | B (a compound having 3 or more and less than 10 is denoted as B) | – | –
0.102 | CCC[C@H]1C(=O)N[C@@H]([C@@H](C)CC)C(=O)N(C2CC2)CC(=O)N(C)[C@H]2C/C=C\CCN(C2=O)[C@@H](Cc2ccc(C(F)(F)F)cc2)C(=O)N(C)CC(=O)N[C@@H](CCc2ccc(Cl)c(Cl)c2)C(=O)N2C[C@H](OCC)C[C@H]2C(=O)NC2(CC(C)(C)C2)C(=O)N(C)[C@@H](CC2CCC2)C(=O)N(C)[C@H](C(=O)N(C)C)CC(=O)N1C [PP2819] | A (a compound having 10 or more and less than 20 is denoted as A) | A (a compound having 10 or more and less than 20 is denoted as A) | – | – | – | –

— patent EP4603105A1, “PHARMACEUTICAL COMPOSITION CONTAINING CYCLIC COMPOUND HAVING SELECTIVE KRAS INHIBITORY EFFECT AGAINST HRAS AND NRAS” (CHUGAI SEIYAKU KABUSHIKI KAISHA, priority 2022, dated 2024)
